One test concerns the target GABAa receptor. The experiment in a line: GABAa receptor activity: displacement of 3H-RO15-1788 (3H-Flumazenil) binding in rat cortical tissue homogenate. The conditions noted are these: 3H-RO15-1788 0.5 nM, 30 min at 4° C., pH 7.4, rat cortical tissue. As to the method:
The pharmaceutical utility of compounds of this invention are indicated by the following assay for GABAa receptor activity.
Assays are carried out as described in Thomas and Tallman (J. Bio. Chem. 156: 9838-9842, J. Neurosci. 3: 433-440, 1983). Rat cortical tissue is dissected and homogenized in 25 volumes (w/v) of 0.05M Tris HCl buffer (pH 7.4 at 4° C.). The tissue homogenate is centrifuged in the cold (4°) at 20,000×g for 20'. The supernatant is decanted and the pellet is rehomogenized in the same volume of buffer and again centrifuged at 20,000×g. The supernatant is decanted and the pellet is frozen at -20° C. overnight. The pellet is then thawed and rehomogenized in 25 volume (original wt/vol) of buffer and the procedure is carried out twice. The pellet is finally resuspended in 50 volumes (w/vol of 0.05M Tris HCl buffer (pH 7.4 at […]).
Incubations contain […] of radioligand 0.5 nM (^3 H-RO15-1788 [^3 H-Flumazenil] specific activity 80 Ci/mmol), drug or blocker and buffer to a total volume of […]. Incubations are carried for 30 min at 4° C. then are rapidly filtered through GFB filters to separate free and bound ligand. Filters are washed twice with fresh 0.05M Tris HCl buffer (pH 7.4° at 4° C.) and counted in a liquid scintillation counter. […] diazepam is added to some tubes to determine nonspecific binding. Data are collected in triplicate determinations, averaged and % inhibition of total specific binding is calculated. Total Specific Binding=Total - Nonspecific. In some cases, the amounts of unlabeled drugs is varied and total displacement curves of binding are carried out. Data are converted to a form for the calculation of IC50 and Hill Coefficient (nH).

A further test concerns GABA receptor. The conditions noted are these: Tallman et al., 1978; cited from earlier work.

The structures appear in SMILES notation.

`c1ccc(-c2ncc3[nH]c4ccccc4c3n2)cc1` [Compound 4, 2-Phenyl-5H-indolo[3,2-d]pyrimidine] registered an IC50 on GABAa receptor of 20 nM.
In the case of `COc1ccc(-c2ncc3[nH]c4ccccc4c3n2)c(F)c1` [Compound 1, 2-(2-Fluoro-4-methoxyphenyl)-5H-indolo[3,2-d]pyrimidine], at GABAa receptor, the IC50 worked out at 2.5 nM.
The compound `Oc1nc(-c2ccccc2)nc2c1[nH]c1ccccc12` [Compound 2, 4-Hydroxy-2-phenyl-5H-indolo[3,2-d]pyrimidine] yielded an IC50 on GABAa receptor of 100 nM. This IC50 is about 40-fold higher than that of the compound before.
Turning to `CN1CCc2cc3c(cc2[C@H]1[C@@H]1OC(=O)c2c1ccc1c2OCO1)OCO3` [(+) bicuculline], in the test with GABA receptor, the “blocking of enhancement of benzodiazepine binding by GABA agonists” value is “blocked”.
Turning to `CN1CCc2cc3c(cc2[C@@H]1[C@H]1OC(=O)c2c1ccc1c2OCO1)OCO3` [(-) bicuculline], the “blocking of enhancement of benzodiazepine binding by GABA agonists” value in the test with GABA receptor is recorded as “much less active”.
